We go through 33 compounds from US9073821B2, “Hydroxamic acid derivative” (priority 2010, dated 2015).

Some results are limits rather than exact numbers.

The first assay has as its target Pseudomonas aeruginosa LpxC enzyme (Pseudomonas aeruginosa (strain ATCC 15692 / DSM 22644 / CIP 104116 / JCM 14847 / LMG 12228 / 1C / PRS 101 / PAO1), UniProt P47205). In words: biochemical. The format is biochemical. The following applies: class symbols A/B/C by IC50; Table 3; read-out: Enzyme inhibitory activity (inhibitory activity on Pseudomonas aeruginosa LpxC enzyme).
With `CNC(=O)[C@@](C)(C(=O)NO)N(C)C(=O)c1ccc(C#Cc2csc(C)n2)cc1` [Compound 586, (2S)-N-hydroxy-N′,2-dimethyl-2-[methyl({4-[(2-methyl-1,3-thiazol-4-yl)ethynyl]phenyl}carbonyl)amino]propanediamide], the IC50 lay within 10 to 100 nM. On the same count and under the same terms, under `CNC(=O)C(C(=O)NO)N(C)C(=O)c1ccc(C#Cc2cnn(C)c2)cc1` (stereo not drawn) [Compound 504, N-hydroxy-N′-methyl-2-[methyl({4-[(1-methyl-1H-pyrazol-4-yl)ethynyl]phenyl}carbonyl)amino]propanediamide] stands 10 to 100 nM; under `CNC(=O)[C@@](C)(C(=O)NO)N(C)C(=O)c1ccc(C#C/C=C/CCCOC)cc1` [Compound 597, (2S)-N-hydroxy-2-[{4-[(3E)-7-methoxyhept-3-en-1-yn-1-yl]benzoyl}(methyl)amino]-N′,2-dimethylpropanediamide], below 10 nM. As for `CNC(=O)C(C(=O)NO)N(C)C(=O)c1ccc(C#CC2=CCCCC2)cc1` (stereo not drawn) [Compound 523, 2-[{[4-(cyclohex-1-en-1-ylethynyl)phenyl]carbonyl}(methyl)amino]-N-hydroxy-N′-methylpropanediamide], the IC50 is 10 to 100 nM. On the same count and under the same terms, the same measure for `CCO/N=C/c1ccc(C#Cc2ccc(C(=O)N(C)C(C(=O)NC)C(=O)NO)cc2)o1` (stereo not drawn) [Compound 501, 2-[{[4-({5-[(E)-(ethoxyimino)methyl]furan-2-yl}ethynyl)phenyl]carbonyl}(methyl)amino]-N-hydroxy-N′-methylpropanediamide]: below 10 nM; for `CNC(=O)[C@@](C)(C(=O)NO)N(C)C(=O)c1ccc(C#Cc2coc(CN3CCOCC3)c2)cc1` [Compound 592, (2S)-N-hydroxy-N′,2-dimethyl-2-[methyl(4-{[5-(morpholin-4-ylmethyl)furan-3-yl]ethynyl}benzoyl)amino]propanediamide]: below 10 nM.

The assay is the same for the next values; noted with them: inhibitory activity on Pseudomonas aeruginosa LpxC enzyme, class symbols A/B/C; read-out: Enzyme inhibitory activity.
With `CNC(=O)C(C(=O)NO)N(C)C(=O)c1ccc(-c2ccc(CC(=O)N(C)C)cc2)cc1` (stereo not drawn) [Compound 265, 2-[({4′-[2-(dimethylamino)-2-oxoethyl]biphenyl-4-yl}carbonyl)(methyl)amino]-N-hydroxy-N′-methylpropanediamide], the IC50 lay in the range of 10 to 100 nM.

Take `CNC(=O)C(NC(=O)c1ccc(C#Cc2ccc(CN3CCCOCC3)cc2)cc1)C(=O)NO` (stereo not drawn) [Compound 117, N-hydroxy-N′-methyl-2-[(4-{[4-(1,4-oxazepan-4-ylmethyl)phenyl]ethynyl}benzoyl)amino]propanediamide]: the IC50 is below 10 nM.

As to `CNC(=O)C(C(=O)NO)N(C)C(=O)c1ccc(-c2ccc(OCc3ccc(N4CCN(C)CC4)cc3)cc2)cc1` (stereo not drawn) [Compound 90, N-hydroxy-N′-methyl-2-{methyl[(4′-{[4-(4-methylpiperazin-1-yl)benzyl]oxy}biphenyl-4-yl)carbonyl]amino}propanediamide], the IC50 was below 10 nM. The same measure, in the same setting: the same measure for `CNC(=O)C(C(=O)NO)N(C)C(=O)c1ccc(-c2ccc(N3CCC(CN4CCOCC4)C3)cc2)cc1` (stereo not drawn) [Compound 287, N-hydroxy-N′-methyl-2-[methyl({4′-[3-(morpholin-4-ylmethyl)pyrrolidin-1-yl]biphenyl-4-yl}carbonyl)amino]propanediamide]: below 10 nM; for `CNC(=O)C(C(=O)NO)N(C)C(=O)c1ccc(-c2ccsc2)cc1` (stereo not drawn) [Compound 292, N-hydroxy-N′-methyl-2-(methyl {[4-(thiophen-3-yl)phenyl]carbonyl}amino)propanediamide]: 10 to 100 nM; for `CNC(=O)C(C(=O)NO)N(C)C(=O)c1ccc(C#Cc2ccc(CN3CCC(O)CC3)cc2)cc1` (stereo not drawn) [Compound 334, N-hydroxy-2-[{[4-({4-[(4-hydroxypiperidin-1-yl)methyl]phenyl}ethynyl)phenyl]carbonyl}(methyl)amino]-N′-methylpropanediamide]: below 10 nM. As for `CNC(=O)C(C(=O)NO)N(C)C(=O)c1ccc(-c2ccc3nn(C)cc3c2)cc1` (stereo not drawn) [Compound 197, N-hydroxy-N′-methyl-2-{methyl[4-(2-methyl-2H-indazol-5-yl)benzoyl]amino}propanediamide], the IC50 lay in the range of 10 to 100 nM. In the case of `CNC(=O)C(C(=O)NO)N(C)C(=O)c1ccc(-c2ccc3c(c2)OCCO3)cc1` (stereo not drawn) [Compound 81, 2-{[4-(2,3-dihydro-1,4-benzodioxin-6-yl)benzoyl](methyl)amino}-N-hydroxy-N′-methylpropanediamide], the IC50 was below 10 nM. Still for that read-out and setting: the same measure for `CC(=O)N(C)CCNC(=O)C(NC(=O)c1ccc(-c2ccc(OCCO)cc2)cc1)C(=O)NO` (stereo not drawn) [Compound 145, N-{2-[acetyl(methyl)amino]ethyl}-N′-hydroxy-2-({[4′-(2-hydroxyethoxy)biphenyl-4-yl]carbonyl}amino)propanediamide]: 10 to 100 nM; for `CCCNC(=O)C(NC(=O)c1ccc(-c2ccc(OCCO)cc2)cc1)C(=O)NO` (stereo not drawn) [Compound 142, N-hydroxy-2-({[4′-(2-hydroxyethoxy)biphenyl-4-yl]carbonyl}amino)-N′-propylpropanediamide]: 10 to 100 nM. Consider `CCCCc1ccc(C(=O)N(C)C(C(=O)NC)C(=O)NO)cc1` (stereo not drawn) [Compound 37, 2-[(4-butylbenzoyl)(methyl)amino]-N-hydroxy-N′-methylpropanediamide], for which the IC50 is 10 to 100 nM. `CNC(=O)C(NC(=O)c1ccc(-c2ccc(OCCO)cc2)cc1)C(=O)NO` (stereo not drawn) [Compound 113, N-hydroxy-2-({[4′-(2-hydroxyethoxy)biphenyl-4-yl]carbonyl}amino)-N′-methylpropanediamide]: the IC50 was below 10 nM.

Consider `CN(C(=O)c1ccc(-c2ccccc2)cc1)C(C(=O)NO)C(=O)NC1CC1` (stereo not drawn) [Compound 175, 2-[(biphenyl-4-ylcarbonyl)(methyl)amino]-N-cyclopropyl-N′-hydroxypropanediamide], for which the IC50 was above 100 nM. Regarding `CNC(=O)C(C(=O)NO)N(C)C(=O)c1ccc(-c2ccc(OCc3coc(C)n3)cc2)cc1` (stereo not drawn) [Compound 99, N-hydroxy-N′-methyl-2-[methyl({4′-[(2-methyl-1,3-oxazol-4-yl)methoxy]biphenyl-4-yl}carbonyl)amino]propanediamide], the IC50 is below 10 nM. On to `CNC(=O)C(C)(C(=O)NO)N(C)C(=O)c1ccc(C#Cc2ccccc2)cc1` (stereo not drawn) [Compound 345, N-hydroxy-N′,2-dimethyl-2-(methyl {[4-(phenylethynyl)phenyl]carbonyl}amino)propanediamide], for which the IC50 is below 10 nM. Same read-out and setting: the same measure for `CNC(=O)C(C(=O)NO)N(C)C(=O)c1ccc(-c2ccc3c(c2)ncn3C)cc1` (stereo not drawn) [Compound 281, N-hydroxy-N′-methyl-2-{methyl[4-(1-methyl-1H-benzimidazol-5-yl)benzoyl]amino}propanediamide]: 10 to 100 nM; for `CNC(=O)C(C(=O)NO)N(C)C(=O)c1ccc(-c2ccncc2)cc1` (stereo not drawn) [Compound 169, N-hydroxy-N′-methyl-2-{methyl[4-(pyridin-4-yl)benzoyl]amino}propanediamide]: 10 to 100 nM; for `CNC(=O)C(C(=O)NO)N(C)C(=O)c1ccc(-c2ccc(-c3ccc(CN4CCOCC4)o3)cc2)cc1` (stereo not drawn) [Compound 479, N-hydroxy-N′-methyl-2-[methyl({4′-[5-(morpholin-4-ylmethyl)furan-2-yl]biphenyl-4-yl}carbonyl)amino]propanediamide]: below 10 nM. On the same count and under the same terms, under `O=C1COc2ccc(CNC(=O)C(NC(=O)c3ccc(-c4ccc(OCCO)cc4)cc3)C(=O)NO)nc2N1` (stereo not drawn) [Compound 152, N-hydroxy-2-({[4′-(2-hydroxyethoxy)biphenyl-4-yl]carbonyl}amino)-N′-[(3-oxo-3,4-dihydro-2H-pyrido[3,2-b][1,4]oxazin-6-yl)methyl]propanediamide] stands below 10 nM. Take `CNC(=O)C(C(=O)NO)N(C)C(=O)c1ccc(-c2ccc(SCCCN3CCOCC3)cc2)cc1` (stereo not drawn) [Compound 286, N-hydroxy-N′-methyl-2-{methyl[(4′-{[3-(morpholin-4-yl)propyl]sulfanyl}biphenyl-4-yl)carbonyl]amino}propanediamide]: the IC50 is below 10 nM. The same measure, in the same setting: under `CNC(=O)C(C(=O)NO)N(C)C(=O)c1ccc(-c2ccc(NCCOC)c(F)c2)cc1` (stereo not drawn) [Compound 66, 2-[({3′-fluoro-4′-[(2-methoxyethyl)amino]biphenyl-4-yl}carbonyl)(methyl)amino]-N-hydroxy-N′-methylpropanediamide] stands below 10 nM. On the same count and under the same terms, the same measure for `CNC(=O)C(C(=O)NO)N(C)C(=O)c1ccc(-c2cccc(OC)c2)cc1` (stereo not drawn) [Compound 279, N-hydroxy-2-{[(3′-methoxybiphenyl-4-yl)carbonyl](methyl)amino}-N′-methylpropanediamide]: 10 to 100 nM; for `Cc1cc(CNC(=O)C(NC(=O)c2ccc(-c3ccc(OCCO)cc3)cc2)C(=O)NO)no1` (stereo not drawn) [Compound 133, N-hydroxy-2-({[4′-(2-hydroxyethoxy)biphenyl-4-yl]carbonyl}amino)-N′-[(5-methyl-1,2-oxazol-3-yl)methyl]propanediamide]: below 10 nM; for `CNC(=O)C(C(=O)NO)N(C)C(=O)c1ccc(C#CC#Cc2ccoc2)cc1` (stereo not drawn) [Compound 484, 2-[({4-[4-(furan-3-yl)buta-1,3-diyn-1-yl]phenyl}carbonyl)(methyl)amino]-N-hydroxy-N′-methylpropanediamide]: below 10 nM. On the same count and under the same terms, under `CNC(=O)C(C(=O)NO)N(C)C(=O)c1ccc(-c2ccc(OCCCN3CCS(=O)(=O)CC3)cc2)cc1` (stereo not drawn) [Compound 289, 2-[({4′-[3-(1,1-dioxidothiomorpholin-4-yl)propoxy]biphenyl-4-yl}carbonyl)(methyl)amino]-N-hydroxy-N′-methylpropanediamide] stands below 10 nM; under `CNC(=O)C(C(=O)NO)N(C)C(=O)c1ccc(-c2ccc(NC3CCC3)cc2)cc1` (stereo not drawn) [Compound 268, 2-[{[4′-(cyclobutylamino)biphenyl-4-yl]carbonyl}(methyl)amino]-N-hydroxy-N′-methylpropanediamide], below 10 nM. As for `CNC(=O)C(C(=O)NO)N(C)C(=O)c1ccc(-c2ccc(CNCC(C)(C)C)cc2)cc1` (stereo not drawn) [Compound 74, 2-{[(4′-{[(2,2-dimethylpropyl)amino]methyl}biphenyl-4-yl)carbonyl](methyl)amino}-N-hydroxy-N′-methylpropanediamide], the IC50 was above 100 nM.
